Assay results from ChEMBL document CHEMBL5512620, “Design and synthesis of forsythin derivatives as anti-inflammatory agents for acute lung injury” (Eur J Med Chem, 2024).

System: RAW264.7
Assay: Cytotoxicity activity mouse RAW264.7 cells assessed as effect on cell viability at 25 uM incubated for 24 hrs by MTT assay
Assay type: toxicity, cell-based
Conditions: raw264.7, 24 h

COc1ccc([C@@H]2OC[C@H]3[C@@H]2CO[C@@H]3c2ccc(O[C@H]3O[C@H](COC(=O)c4cn(-c5ccc(Cl)cc5)nn4)[C@@H](O)[C@H](O)[C@H]3O)c(OC)c2)cc1OC
Activity: Non-Toxic

COc1ccc([C@H]2OC[C@@H]3[C@H]2CO[C@@H]3c2ccc(O[C@@H]3O[C@@H](COC(=O)c4cc5ccccc5cn4)[C@H](O)[C@@H](O)[C@@H]3O)c(OC)c2)cc1OC (stereo in doubt)
Activity: Non-Toxic

COc1ccc([C@H]2OC[C@@H]3[C@H]2CO[C@@H]3c2ccc(O[C@@H]3O[C@@H](COC(=O)c4cccc5ncccc45)[C@H](O)[C@@H](O)[C@@H]3O)c(OC)c2)cc1OC (stereo in doubt)
Activity: Non-Toxic

COc1cccc(C(=O)OC[C@H]2O[C@H](Oc3ccc([C@H]4OC[C@H]5[C@@H]4CO[C@H]5c4ccc(OC)c(OC)c4)cc3OC)[C@H](O)[C@@H](O)[C@@H]2O)c1
Activity: Non-Toxic

COc1ccc([C@@H]2OC[C@H]3[C@@H]2CO[C@@H]3c2ccc(O[C@H]3O[C@H](COC(=O)[C@H](CC(C)C)NC(=O)OC(C)(C)C)[C@@H](O)[C@H](O)[C@H]3O)c(OC)c2)cc1OC
Activity: Non-Toxic

COc1ccc([C@H]2OC[C@@H]3[C@H]2CO[C@@H]3c2ccc(O[C@@H]3O[C@@H](COC(=O)c4nccc5ccccc45)[C@H](O)[C@@H](O)[C@@H]3O)c(OC)c2)cc1OC (stereo in doubt)
Activity: Non-Toxic

COc1ccc(/C=C/C(=O)OC[C@H]2O[C@H](Oc3ccc([C@H]4OC[C@H]5[C@@H]4CO[C@H]5c4ccc(OC)c(OC)c4)cc3OC)[C@H](O)[C@@H](O)[C@@H]2O)cc1
Activity: Non-Toxic

COc1ccc([C@@H]2OC[C@H]3[C@@H]2CO[C@@H]3c2ccc(O[C@H]3O[C@H](COC(=O)/C=C/c4ccccc4)[C@@H](O)[C@H](O)[C@H]3O)c(OC)c2)cc1OC
Activity: Non-Toxic
